# US20250101026A1, “Functionalized Allopurinol Derivatives for Treatment of Alzheimer’s Disease” (BOARD OF REGENTS OF THE UNIVERSITY OF NEBRASKA, priority 2022, published 2025)
# “Also recorded” adds a separate entry of the source.
# Assays:
# [1] = system: 5XFAD primary cortical neurons; test: Mitochondrial morphology (TOM20 staining) in 5XFAD primary cortical neurons; assay type: cell-based, mouse; settings: 10 and 50 μM, 48 hours; compared with no treatment control 5XFAD neurons
# Method: Immunofluorescent Microscopy and Image Analysis. Isolated primary mouse cortical neurons from the 5XFAD Alzheimer's Disease mouse model were cultured for 10 days and then treated with 14b at 10 or 50 μM for 48 hours. Primary neurons growing on the coverslips were washed three times with PBS and fixed with 4% PFA. After permeabilization with 0.5% Triton™ X-100 for 15 minutes, coverslips were blocked with 10% NGS for 30 min. Coverslips were rinsed with 1% NGS in PBS and incubated with anti-TOM20 antibody at 4° C. overnight. Coverslips were then rinsed with 1% NGS, blocked in 10% NGS for 10 min, and rinsed with 1% NGS. Coverslips were incubated with species-specific AlexaFluor® 488-conjugated Abs diluted in 1% NGS for 2 h at room temperature in the dark. Coverslips were rinsed 3× with PBS. Excess liquid was removed, and slides were coverslipped using Fluoromount-G™ mounting medium. Slides were imaged using a confocal microscope with 63x/1.4NA Oil objective. The acquired images were processed for background subtraction in Zen software. Mitochondrial length was calculated from single plane images. Mitochondrial length was defined as the Feret maximum.
# To obtain proof-of-concept protective effect of 14b in an ex vivo mouse model of AD we isolated primary mouse cortical neurons from the 5XFAD Alzheimer's model mouse (FIGS. 6A-6C). […]
# SH-SY5Y cells [2] = test: Cell viability of SH-SY5Y cells with compound alone; assay type: cell-based, human; settings: up to 100 μM
# Method: (§1) Cell Culture. The cell line SH-SY5Y was cultured in DMEM/F12 media supplemented with 10% fetal bovine serum, 1% penicillin-streptomycin and maintained as monolayer cultures in a humidified atmosphere containing 5% CO2 at 37° C.^42 All cell lines were authenticated via short tandem repeat analysis and tested for mycoplasma using the a commercial mycoplasma detection kit as per the manufacturer's instructions, showing no contamination. Where indicated, cells were also cultured in DMEM/low glucose media. All compounds were diluted to 20 mM solution in DMSO and were serially diluted in cell culture media for cell treatments to a final concentration range of 0.01 to 100 μM, maintaining the final DMSO concentration at less than 1%. Positive control compound HupA was serially diluted in a similar fashion as the synthesized compounds.
# Cell Viability Assays. The SH-SY5Y cells were plated at a density of 50,000 cells/well in 96-well plates and allowed to adapt overnight in a humidified atmosphere containing 5% CO2 at 37° C. The cells were pretreated (24 hours) with the test compound and exchanged to a serum-free DMEM/low glucose media, prior to incubation with 25 μM of Aβ. Cell viability was measured after 48 hours using commercial MTS assay or lactate dehydrogenase (LDH) cytotoxicity assay. […]
# SH-SY5Y cells [3] = test: Mitochondrial Stress Test in Aβ-treated SH-SY5Y cells (extracellular flux analyzer); assay type: cell-based, human
# Method: Mitochondrial Stress Test. […] After 48 hours, media was replaced with assay medium consisting of XF Base Medium supplemented with 10 mM glucose, 10 mM pyruvic acid, and 1 mM L-glutamine. Subsequently, the analysis of mitochondrial oxygen consumption rate (OCR) was performed in a flux analyzer. The OCR values were obtained both during baseline (prior to addition of any Mito Stress Test substances), and after the addition of […], 2 μM FCCP and 0.5 μM rotenone+0.5 μM antimycin A, respectively. Prior to analysis, data were corrected by withdrawing non-mitochondrial respiration (measured after the injection of rotenone and antimycin A) from all measured OCR values. After the experiment, cells were lysed using RIPA buffer and protease inhibitor cocktail, then proteins were quantified via BCA assay. Results were normalized to protein concentration of each well to its OCR value.
# SH-SY5Y cells [4] = test: Aβ-induced toxicity in SH-SY5Y cells, lactate dehydrogenase (LDH) release assay; assay type: cell-based, human; settings: 1 μM, pretreated 24 hrs, then 25 μM Aβ 48 hrs
# Method: as §1
# Amyloid Preparation. The peptide Aβ1-42, referred to as “Aβ”, was obtained from a commercial source. The oligomers of Aβ were prepared using an established method,^43 Aβ peptide was resuspended in 0.5 mM NaOH at a concentration of […] and stored at −80° C. For use in cell cultures, the stock solution was incubated at 37° C. for 5-7 days. Before use, the peptide was diluted to 25 μM in DMEM/low glucose media.
# Cell Viability Assays. […] Cell viability was measured after 48 hours using commercial MTS assay or lactate dehydrogenase (LDH) cytotoxicity assay. […]
structure (smiles),measurement,setting,value
"O=C(C(c1ccccc1)n1cnc2[nH]ncc2c1=S)N1CCC(O)CC1 (stereo not shown) [Compound 14b, 1-(4-hydroxypiperidin-1-yl)-2-phenyl-2-(4-thioxo-1,4-dihydro-5H-pyrazolo[3,4-d]pyrimidin-5-yl)ethan-1-one]",mitochondrial aspect ratio,[1],significantly rescued
same,mitochondrial length,[1],significantly rescued
same,toxicity to reduce cell viability,SH-SY5Y cells [2],no toxicity; also recorded: non-toxic
same,basal respiration: restored share of the cell respiration reduced by Aβ,"SH-SY5Y cells [3]; 1 μM pretreatment 24 hrs, then 25 μM Aβ 48 hrs",46%
same,"proton leak, ATP production and maximal respiration: restoration of mitochondrial function lost by Aβ","SH-SY5Y cells [3]; 1 μM pretreatment, then 25 μM Aβ",trend to restore; also recorded: trend to rescue
same,"basal respiration, rescue of Aβ-mediated dysfunction",SH-SY5Y cells [3]; SH-SY5Y cells,significantly rescuing
same,LDH release compared with Aβ treatment alone,SH-SY5Y cells [4],significantly reducing LDH release; also recorded: significantly rescued
